Source: patent publication US7998951B2, “HCV NS5B inhibitors” (Bristol-Myers Squibb Company, priority 2007, dated 2011)
pEC50, pIC50: −log10 of the molar value.

Experiments:
HCV replicon cells = assay: HCV replicon FRET assay; type: cell-based; conditions: Hepatitis C virus
Excerpt: FRET Assay Preparation. To perform the HCV FRET screening assay, 96-well cell culture plates were used. The FRET peptide (Anaspec, Inc.) (Taliani et al., Anal. Biochem. 1996, 240, 60-67) contains a fluorescence donor, EDANS, near one end of the peptide and an acceptor, DABCYL, near the other end. The fluorescence of the peptide is quenched by […] resonance energy transfer (RET) between the donor and the acceptor, but as the NS3 protease cleaves the peptide the products are released from RET quenching and the fluorescence of the donor becomes apparent. The assay reagent was made as follows: 5× cell Luciferase cell culture lysis reagent from Promega (#E153A) diluted to 1× with dH2O, NaCl added to 150 mM final, the FRET peptide diluted to 20 uM final from a 2 mM stock.
To prepare plates, HCV replicon cells, with or without a Renilla luciferase reporter gene, were trypsinized and placed into each well of a 96-well plate with titrated test compounds added in columns 3 through 12; columns 1 and 2 contained a control compound (HCV protease inhibitor), and the bottom row contained cells without compound. The plates were then placed in a CO2 incubator at 37° C.
Assays. Subsequent to addition of the test compounds described above (FRET Assay Preparation), at various times the plate was removed and Alamar blue solution (Trek Diagnostics, #00-100) was added per well as a measure of cellular toxicity. After reading in a Cytoflour 4000 instrument (PE Biosystems), plates were rinsed with PBS and then used for FRET assay by the addition of 30 ul of the FRET peptide assay reagent described above (FRET Assay Preparation) per well. The plate was then placed into the Cytoflour 4000 instrument which had been set to 340 excite/490 emission, automatic mode for 20 cycles and the plate read in a kinetic mode. Typically, the signal to noise using an endpoint analysis after the reads was at least three-fold. Alternatively, after Alamar blue reading, plates were rinsed with PBS, 50 ul of DMEM (high glucose) without phenol red was added and plates were then used for luciferase assay using the Promega Dual-Glo Luciferase Assay System.
Compound analysis was determined by quantification of the relative HCV replicon inhibition and the relative cytotoxicity values. To calculate cytoxicity values, the average Alamar Blue fluorescence signals from the control wells were set as 100% non-toxic. The individual signals in each of the compound test wells were then divided by the average control signal and multiplied by 100% to determine […]. To calculate the HCV replicon inhibition values, an average background value was obtained from the two wells containing the highest amount of HCV protease inhibitor at the end of the assay period. These numbers were similar to those obtained from naïve Huh-7 cells.
The background numbers were then subtracted from the average signal obtained from the control wells and this number was used as 100% activity. The individual signals in each of the compound test wells were then divided by the averaged control values after background subtraction and multiplied by 100% to determine percent activity. EC50 values for a protease inhibitor titration were calculated as the concentration which caused a 50% reduction in FRET or luciferase activity. The two numbers generated for the compound plate, percent cytotoxicity and percent activity were used to determine compounds of interest for further analysis.

[1] = target: T1, HCV NS5B RdRp genotype 1b (Hepatitis C virus genotype 1b, UniProt Q9WMX2); assay: HCV NS5B RdRp enzyme assay (preincubation protocol); type: biochemical
T1 construct: The protein was expressed with an 18 amino acid C-terminal truncation to enhance the solubility; made in house; host or cells: E. coli BL21 (DE3)
T1 sequence (Q9WMX2 2420-2992): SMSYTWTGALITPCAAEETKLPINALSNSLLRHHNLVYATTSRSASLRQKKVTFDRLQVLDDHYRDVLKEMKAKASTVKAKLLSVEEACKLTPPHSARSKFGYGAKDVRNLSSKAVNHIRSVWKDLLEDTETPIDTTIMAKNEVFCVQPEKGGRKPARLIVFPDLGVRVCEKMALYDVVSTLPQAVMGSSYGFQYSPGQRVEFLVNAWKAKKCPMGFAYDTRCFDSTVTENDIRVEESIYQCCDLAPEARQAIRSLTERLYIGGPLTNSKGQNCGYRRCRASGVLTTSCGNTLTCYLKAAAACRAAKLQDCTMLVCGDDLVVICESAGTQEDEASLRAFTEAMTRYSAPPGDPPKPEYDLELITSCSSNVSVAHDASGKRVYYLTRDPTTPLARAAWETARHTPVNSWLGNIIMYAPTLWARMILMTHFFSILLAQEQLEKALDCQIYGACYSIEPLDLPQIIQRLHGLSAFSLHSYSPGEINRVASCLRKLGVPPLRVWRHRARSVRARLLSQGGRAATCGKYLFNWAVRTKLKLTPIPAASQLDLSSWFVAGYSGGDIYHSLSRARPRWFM
Description: HCV NS5B RdRp cloning, expression, and purification. The cDNA encoding the NS5B protein of HCV, genotype 1b, was cloned into the pET21a expression vector. The protein was expressed with an 18 amino acid C-terminal truncation to enhance the solubility. The E. coli competent cell line BL21 (DE3) was used for expression of the protein. Cultures were grown at 37° C. for ˜4 hours until the cultures reached an optical density of 2.0 at 600 nm. The cultures were cooled to 20° C. and induced with 1 mM IPTG. Fresh ampicillin was added to a final concentration of 50 μg/ml and the cells were grown overnight at 20° C.
Cell pellets (3 L) were lysed for purification to yield 15-24 mgs of purified NS5B. The lysis buffer consisted of 20 mM Tris-HCl, pH 7.4, 500 mM NaCl, 0.5% triton X-100, 1 mM DTT, 1 mM EDTA, 20% glycerol, 0.5 mg/ml lysozyme, 10 mM MgCl2, 15 ug/ml deoxyribonuclease I, and Complete TM protease inhibitor tablets (Roche). After addition of the lysis buffer, frozen cell pellets were resuspended using a tissue homogenizer. To reduce the viscosity of the sample, aliquots of the lysate were sonicated on ice using a microtip attached to a Branson sonicator. The sonicated lysate was centrifuged at 100,000×g for 1 hr at 4° C. and filtered through a 0.2 μm filter unit (Corning).
The protein was purified using three sequential chromatography steps: Heparin sepharose CL-6B, polyU sepharose 4B, and Hitrap SP sepharose (Pharmacia). The chromatography buffers were identical to the lysis buffer but contained no lysozyme, deoxyribonuclease I, MgCl2 or protease inhibitor and the NaCl concentration of the buffer was adjusted according to the requirements for charging the protein onto the column. Each column was eluted with a NaCl gradient which varied in length from 5-50 column volumes depending on the column type. After the final chromatography step, the resulting purity of the enzyme is >90% based on SDS-PAGE analysis. The enzyme was aliquoted and stored at −80° C.
Standard HCV NS5B RdRp enzyme assay. HCV RdRp genotype 1b assays were run in a final volume of 60 μl in 96 well plates (Costar 3912). The assay buffer is composed of 20 mM Hepes, pH 7.5, 2.5 mM KCl, 2.5 mM MgCl2, 1 mM DTT, 1.6 U RNAse inhibitor (Promega N2515), 0.1 mg/ml BSA (Promega R3961), and 2% glycerol. All compounds were serially diluted (3-fold) in DMSO and diluted further in water such that the final concentration of DMSO in the assay was 2%. HCV RdRp genotype 1b enzyme was used at a final concentration of 28 nM. A polyA template was used at 6 nM, and a biotinylated oligo-dT12 primer was used at 180 nM final concentration. Template was obtained commercially (Amersham 27-4110). Biotinylated primer was prepared by Sigma Genosys. 3H-UTP was used at 0.6 μCi (0.29 μM total UTP). Reactions were initiated by the addition of enzyme, incubated at 30° C. for 60 min, and stopped by adding 25 μl of 50 mM EDTA containing SPA beads (4 μg/μl, Amersham RPNQ 0007). Plates were read on a Packard Top Count NXT after >1 hr incubation at room temperature.
Modified HCV NS5B RdRp enzyme assay. A modified enzyme assay was performed essentially as described for the standard enzyme assay except for the following: The biotinylated oligo dT12 primer was precaptured on streptavidin-coated SPA beads by mixing primer and beads in assay buffer and incubating at room temperature for one hour. Unbound primer was removed after centrifugation. The primer-bound beads were resuspended in 20 mM Hepes buffer, pH 7.5 and used in the assay at final concentrations of 20 nM primer and 0.67 μg/μl beads. Order of addition in the assay: enzyme (14 nM) was added to diluted compound followed by the addition of a mixture of template (0.2 nM), 3H-UTP (0.6 μCi, 0.29 μM), and primer-bound beads, to initiate the reaction; concentrations given are final. Reactions were allowed to proceed for 4 hours at 30° C.
IC50 values for compounds were determined using seven different [I]. […]

| Structure (SMILES) | pEC50 (HCV replicon cells) | pIC50 [1] |
| --- | --- | --- |
| COC(=O)c1ccc2c(C3CCCCC3)c(-c3ccccc3)n3c2c1CCC3 | < 6.92 | < 5.00 |
| O=C(O)c1ccc2c(C3CCCCC3)c(-c3ccccc3)n3c2c1CCCC3 | < 6.00 | < 6.00 |
| O=C(O)c1ccc2c(C3CCCCC3)c(-c3ccccc3)n3c2c1C=CCC3 | < 6.00 | < 6.00 |
| COC(=O)c1ccc2c(C3CCCCC3)c(-c3ccccc3)n3c2c1C=CCC3 | < 6.92 | < 5.00 |
| O=C(O)c1ccc2c(C3CCCCC3)c(-c3ccccc3)n3c2c1CCC3C(=O)N1CCOCC1 (stereo not drawn) | 6.00 to 7.52 | 6.00 to 7.52 |
| COC(=O)c1ccc2c(C3CCCCC3)c(-c3ccccc3)n3c2c1CCC3C(=O)OC (stereo not drawn) | < 6.00 | < 5.00 |
| COC(=O)c1ccc2c(C3CCCCC3)c(-c3ccccc3)n3c2c1CCC3C(=O)O (stereo not drawn) | < 6.92 | < 6.00 |
| COC(=O)c1ccc2c(C3CCCCC3)c(-c3ccccc3)n3c2c1CCC3C(=O)N1CCOCC1 (stereo not drawn) | < 6.92 | < 6.00 |
| CN(C)S(=O)(=O)NC(=O)c1ccc2c(C3CCCCC3)c(-c3ccccc3)n3c2c1CCC3C(=O)N1CCOCC1 (stereo not drawn) | 5.00 to 6.00 | 5.00 to 6.00 |
| CCOC(=O)/C=C/c1ccc(NC(=O)C2(NC(=O)c3ccc4c(C5CCCCC5)c(-c5ccccc5)n5c4c3CCC5C(=O)N3CCOCC3)CCCC2)cc1 (stereo not drawn) | 6.00 to 7.52 | 5.00 to 6.00 |
| O=C(O)/C=C/c1ccc(NC(=O)C2(NC(=O)c3ccc4c(C5CCCCC5)c(-c5ccccc5)n5c4c3CCC5C(=O)N3CCOCC3)CCCC2)cc1 (stereo not drawn) | 5.00 to 6.00 | 6.00 to 7.52 |
| O=C(O)c1ccc2c(C3CCCCC3)c(-c3ccccc3)n3c2c1OCC3 | 5.00 to 6.00 | 6.00 to 7.52 |
| CN(C)S(=O)(=O)NC(=O)c1ccc2c(C3CCCCC3)c(-c3ccccc3)n3c2c1OCC3 | 5.00 to 6.00 | 5.00 to 6.00 |
| CCOC(=O)/C=C/c1ccc(NC(=O)C2(NC(=O)c3ccc4c(C5CCCCC5)c(-c5ccccc5)n5c4c3OCC5)CCCC2)cc1 | < 6.00 | 6.00 to 7.52 |
| O=C(O)/C=C/c1ccc(NC(=O)C2(NC(=O)c3ccc4c(C5CCCCC5)c(-c5ccccc5)n5c4c3OCC5)CCCC2)cc1 | 6.00 to 7.52 | 6.00 to 7.52 |
| O=C(NS(=O)(=O)C1CC1)c1ccc2c(C3CCCCC3)c(-c3ccccc3)n3c2c1CCC3C(=O)N1CCOCC1 (stereo not drawn) | < 5.00 | 5.00 to 6.00 |
| C[C@@H]1CN(C(=O)C2CCc3c(C(=O)O)ccc4c(C5CCCCC5)c(-c5ccccc5)n2c34)C[C@H](C)O1 (stereo partly drawn) | 5.00 to 6.00 | < 6.00 |
| O=C(O)c1ccc2c(C3CCCCC3)c(-c3ccccc3)n3c2c1CCC3C(=O)O (stereo not drawn) | < 5.00 | < 6.00 |
| COC(=O)c1ccc2c(C3CCCCC3)c(-c3ccccc3)n3c2c1OCC3 | < 6.92 | 5.00 to 6.00 |
| O=C(O)/C=C\c1ccc(NC(=O)C2(NC(=O)c3ccc4c(C5CCCCC5)c(-c5ccccc5)n5c4c3OCC5)CCCC2)cc1 | 6.00 to 7.52 | 6.00 to 7.52 |
| COc1ccc(-c2c(C3CCCCC3)c3ccc(C(=O)NC4(C(=O)Nc5ccc(C=CC(=O)O)cc5)CCCC4)c4c3n2CCO4)cc1 | 6.00 to 7.52 | 6.00 to 7.52 |
| CCOC(=O)/C=C/c1ccc(NC(=O)C2(NC(=O)c3ccc4c(C5CCCCC5)c(-c5ccc(OC)cc5)n5c4c3OCC5)CCCC2)cc1 | < 6.00 | 6.00 to 7.52 |
| COC(=O)c1ccc2c(C3CCCCC3)c(-c3ccccc3)n3c2c1OC(C(=O)OC)C3 (stereo not drawn) | < 6.00 | < 6.00 |
| COc1ccc(-c2c(C3CCCCC3)c3ccc(C(=O)O)c4c3n2CCO4)cc1 | 5.00 to 6.00 | 6.00 to 7.52 |
